The target of one assay is T1, human topoisomerase II (Homo sapiens, UniProt P11388).
T1 construct: Topo II was purified from late log phase suspension cultures of HeLa WIS; endogenous in cells; host or cells: HeLa WIS suspension cultures, late log phase (enzyme purified from the cells)
The assay can be described thus: Mammalian Topoisomerase II Inhibition Assay (DNA-topo II complex formation). Type of assay: biochemical. The note with it: read-out: TopoII Inh. EC50. As to the method:
Mammalian Topoisomerase II Inhibition Assay Procedure
The assay quantitates the amount of topo II covalently complexed by DNA at equilibrium during a topo II reaction. This assay determines the potential of a compound to stabilize this complex, which potential is closely related to the cytotoxicity of the compound.
Assays (in duplicate) were assembled at 4° C.
4 ng 3' end labeled (^32 P) pBR322 DNA (10^7 DMP/μg)
The assay mix including the test compound was incubated for 20 minutes at 37° C. The reaction was terminated at 37° C. by the addition of 3 μl 10% SDS followed by the addition of 266 μl 10 mM Tris-Cl pH 7.5, 20 μg/ml BSA, 20 μg/ml calf thymus DNA, 1% SDS.
A SDS/protein precipitate was formed by the addition of 28 μl 2.5M KCl followed by chilling on ice for a minimum of 10 minutes. The precipitate was collected and washed with a Brandell cell harvester on a GFB glass fiber filter membrane as follows. The contents of the assay tube were drawn up into the harvester. The tube was then rinsed 7X with 10 mM Tris-Cl pH 7.5, 1 mM EDTA and 100 mM KCl. […] After drying, CPM was determined by liquid scintillation counting with 5 ml Biofluor (NEN Research Products) or Readisafe (Beckman Instruments Inc.) cocktail.
This solution then was diluted 1/5 into water and serially thereafter in either 0.02N sodium hydroxide or 0.04N hydrogen chloride, respectively. The stock solution and serial dilution of the test compound was stored at -20° C. prior to testing.
Screening of test compound--As an initial screen, the test compound was tested at a final concentration of 2, 20 and 200 μg/ml. The compound was then retested at a range of concentrations (usually 2-3X steps) bridging their approximate EC50 's, as estimated by the prescreen.
Controls--A solvent control which indicates the base level of topo II-DNA complex formed in the absence of the test compound was included in each test. A control, in which topo II was omitted, was included for each test compound at the highest drug concentration tested.
Reference Agent--A dose response curve with mAMSA at 0.01, 0.08, 0.16, 0.32, 1.0 and 10 μg/ml was included in each test.
The maximal DNA-topo II complex formed is taken as that equal to that formed at the nearly saturating dose of mAMSA (10 μg/ml).

Assay [1] concerns P388 murine leukemia cells. Put plainly: Malignant cell cytotoxicity, one-hour exposure (clonogenic survival in soft agar). To be noted: Mus musculus, 1 hr exposure, read-out: IC50 P388 1 hr. exp. Type of assay: cell-based. The method, then:
(§1) Examples of compound I having Topo II activity were tested for malignant cell cytotoxicity. In vitro cytotoxicity was assayed by determining cell survival following exposure of P388 murine leukemia cells to a range of test compound concentrations. Cytotoxicity was quantitated following either a one-hour exposure or continuous exposure of P388 cells to test compound.
(§2) Cytotoxicity following a one-hour exposure of cells to drug was assayed by quantitating clonogenic cell survival according to a published procedure [Freshney, R. L. (1987) Culture of Animal Cells. A Manual of Basic Technique. Wiley-Liss Inc., New York, N.Y., pp. 140-144]. Briefly, following drug exposure cells were plated in soft agar and incubated (37°, 5% CO2) for 7-10 days during which time viable cells form visible colonies. Cytotoxicity following continuous exposure of cells to test compound was assayed by quantitating total P388 cells on a Coultier Counter following a 48-hour co-incubation of test compound with cells. P388 cells were maintained in log phase throughout the duration of cytotoxicity assays.
(§3) The percentage of cells surviving relative to an untreated control was graphed as a function of increasing drug concentration.

For assay [2], the system named is P388 murine leukemia cells. The assay can be described thus: Malignant cell cytotoxicity, continuous 48-hour exposure (Coulter Counter). Type of assay: cell-based. To be noted: Mus musculus, read-out: IC50 P388 cont. exp. As to the method:
as §1, §2, §3

[3] abbreviates: EC50 = concentration with activity equal to EC50 of reference mAMSA.

pEC50, pIC50: −log10 of the molar value. Where two headings read alike, the source gives them in different places.

T1 sequence (P11388 whole entry): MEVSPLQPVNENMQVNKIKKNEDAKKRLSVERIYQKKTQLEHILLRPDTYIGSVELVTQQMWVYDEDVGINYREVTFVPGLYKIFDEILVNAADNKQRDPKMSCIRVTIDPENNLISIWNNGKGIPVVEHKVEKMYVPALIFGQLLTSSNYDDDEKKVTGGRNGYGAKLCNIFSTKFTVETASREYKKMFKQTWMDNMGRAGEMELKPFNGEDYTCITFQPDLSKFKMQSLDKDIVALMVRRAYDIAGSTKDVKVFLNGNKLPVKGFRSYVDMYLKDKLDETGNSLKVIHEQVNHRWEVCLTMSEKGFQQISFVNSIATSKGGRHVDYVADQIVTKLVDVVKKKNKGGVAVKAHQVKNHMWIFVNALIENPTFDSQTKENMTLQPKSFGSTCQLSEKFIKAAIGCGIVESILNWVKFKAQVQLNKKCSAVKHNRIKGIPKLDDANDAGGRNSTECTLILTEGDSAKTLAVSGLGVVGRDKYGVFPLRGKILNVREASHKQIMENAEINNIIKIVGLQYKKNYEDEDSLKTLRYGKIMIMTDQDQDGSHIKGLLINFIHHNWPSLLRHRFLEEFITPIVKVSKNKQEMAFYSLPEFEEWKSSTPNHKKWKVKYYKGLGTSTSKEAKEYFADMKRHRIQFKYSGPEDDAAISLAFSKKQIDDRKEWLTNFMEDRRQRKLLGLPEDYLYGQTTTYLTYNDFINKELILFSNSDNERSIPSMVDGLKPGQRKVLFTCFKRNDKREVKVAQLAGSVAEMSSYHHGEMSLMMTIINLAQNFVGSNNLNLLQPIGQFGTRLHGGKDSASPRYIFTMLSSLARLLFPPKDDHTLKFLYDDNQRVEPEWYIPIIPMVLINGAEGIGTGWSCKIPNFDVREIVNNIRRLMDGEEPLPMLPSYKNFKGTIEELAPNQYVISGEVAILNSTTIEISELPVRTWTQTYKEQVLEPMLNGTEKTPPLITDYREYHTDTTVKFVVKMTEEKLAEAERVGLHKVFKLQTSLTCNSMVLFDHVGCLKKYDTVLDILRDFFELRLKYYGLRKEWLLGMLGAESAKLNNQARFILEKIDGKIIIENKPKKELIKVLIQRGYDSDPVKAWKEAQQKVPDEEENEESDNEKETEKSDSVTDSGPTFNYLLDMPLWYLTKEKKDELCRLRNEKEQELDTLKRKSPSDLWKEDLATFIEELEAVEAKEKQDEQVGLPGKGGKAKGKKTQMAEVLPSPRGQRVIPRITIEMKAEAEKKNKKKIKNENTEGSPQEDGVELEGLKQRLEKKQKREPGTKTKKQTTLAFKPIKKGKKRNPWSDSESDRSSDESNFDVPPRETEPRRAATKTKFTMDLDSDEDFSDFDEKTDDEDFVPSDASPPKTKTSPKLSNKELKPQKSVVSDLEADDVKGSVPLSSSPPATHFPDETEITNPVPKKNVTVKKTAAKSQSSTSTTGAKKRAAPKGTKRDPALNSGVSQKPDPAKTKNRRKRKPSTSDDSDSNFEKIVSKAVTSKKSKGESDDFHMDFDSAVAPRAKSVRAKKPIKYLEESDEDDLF

With `Cc1cc(-c2c(F)cc3c(=O)c(Cc4cccc(O)c4)cn(C4CC4)c3c2F)cc(C)n1` [Example 31], the pEC50 on human topoisomerase II (setting [3]) was 5.96. The pIC50 in assay [1] is 5.66; in assay [2], 5.82.

As for `Cc1cc(-c2c(F)cc3c(=O)c(Cc4ccc(O)c(O)c4)cn(C4CC4)c3c2F)cc(C)n1` [Example 32], the pEC50 on human topoisomerase II (setting [3]) is 6.80. The pIC50 in assay [1] is 6.22; in assay [2] it was 5.85.

For the molecule `CC(=O)Nc1ccc(Cc2cn(C3CC3)c3c(F)c(-c4cc(C)nc(C)c4)c(F)cc3c2=O)cc1` [Example 19], the pEC50 at human topoisomerase II (setting [3]) was 4.33.

On to `COc1cccc(Cc2cn(C3CC3)c3c(F)c(-c4cc(C)nc(C)c4)c(F)cc3c2=O)c1OC` [Example 11], for which the pEC50 at human topoisomerase II (setting [3]) is below 3.68. The pIC50 in assay [2] was 5.05.

With `Cc1cc(-c2c(F)cc3c(=O)c(Cc4ccc5c(c4)OCO5)cn(C4CC4)c3c2F)cc(C)n1` [Example 10], the pEC50 on human topoisomerase II (* Bell-shaped curve) is 4.47. The pIC50 in assay [2] is 5.07.

Consider `Cc1cc(-c2c(F)cc3c(=O)c(Cc4ccccn4)cn(C4CC4)c3c2F)cc(C)n1` [Example 4], for which the pEC50 on human topoisomerase II (setting [3]) was 4.92. Besides, the pIC50 in assay [2] was 5.40.

Consider `Cc1cc(-c2c(F)cc3c(=O)c(Cc4cccc(O)c4O)cn(C4CC4)c3c2F)cc(C)n1` [Example 34], for which the pEC50 on human topoisomerase II (setting [3]) was 6.44. In addition, the pIC50 in assay [1] is 6.06; in assay [2], 6.49.

For the molecule `COc1cc(Cc2cn(C3CC3)c3c(F)c(-c4cc(C)nc(C)c4)c(F)cc3c2=O)cc(OC)c1OC` [Example 5], the pEC50 at human topoisomerase II (setting [3]) was below 3.72. In addition, the pIC50 in assay [2] was 4.74.

As to `Cc1cc(-c2c(F)cc3c(=O)c(Cc4ccccc4C(=O)O)cn(C4CC4)c3c2F)cc(C)n1` [Example 15], on human topoisomerase II (setting [3]), the pEC50 is 3.70.

For `Cc1cc(-c2c(F)cc3c(=O)c(Cc4ccc(O)cc4)cn(C4CC4)c3c2F)cc(C)n1` [Example 27, 1-Cyclopropyl-6,8-difluoro-7-[2,6-dimethyl-4-pyridinyl]-3-[4-hydroxyphenylmethyl]-1,4-dihydro-quinoline-4-one], the pEC50 on human topoisomerase II (setting [3]) was 5.92. Besides, the values for the pIC50 in assay [1] and in assay [2] were 5.82 and 6.35, respectively.

On to `Cc1cc(-c2c(F)cc3c(=O)c(Cc4ccc[nH]4)cn(C4CC4)c3c2F)cc(C)n1` [Example 16], for which the pEC50 at human topoisomerase II (setting [3]) is 5.29. Moreover, the pIC50 in assay [1] is 6.03.

For `CC(=O)Nc1ccccc1Cc1cn(C2CC2)c2c(F)c(-c3cc(C)nc(C)c3)c(F)cc2c1=O` [Example 41b], at human topoisomerase II (setting [3]), the pEC50 was 5.29.

Turning to `Cc1cc(-c2c(F)cc3c(=O)c(Cc4c[nH]cn4)cn(C4CC4)c3c2F)cc(C)n1` [Example 24], at human topoisomerase II (setting [3]), the pEC50 was 5.80. In addition, in assay [1], the pIC50 is 6.41.

Turning to `Cc1cc(-c2c(F)cc3c(=O)c(Cc4ccncc4)cn(C4CC4)c3c2F)cc(C)n1` [Example 13], the pEC50 at human topoisomerase II (setting [3]) is 5.04. In addition, in assay [2], the pIC50 was 5.64.

Regarding `Cc1cc(-c2c(F)cc3c(=O)c(Cc4cccc(F)c4O)cn(C4CC4)c3c2F)cc(C)n1` [Example 37], the pEC50 at human topoisomerase II (setting [3]) is 6.82. The pIC50 in assay [1] is 3.90.

As for `COc1cccc(OC)c1Cc1cn(C2CC2)c2c(F)c(-c3cc(C)nc(C)c3)c(F)cc2c1=O` [Example 1, 1-Cyclopropyl-6,8-difluoro-7-[2,6-dimethyl-4-pyridinyl]-3-[2,6-dimethoxyphenylmethyl]-1,4-dihydro-quinolin-4-one], at human topoisomerase II (setting [3]), the pEC50 was 4.43. Moreover, the pIC50 in assay [1] was 4.10; in assay [2] it was 4.70.

As for `Cc1cc(-c2c(F)cc3c(=O)c(Cc4ccccc4N)cn(C4CC4)c3c2F)cc(C)n1` [Example 41a], the pEC50 at human topoisomerase II (setting [3]) is 5.68.

Consider `COc1ccc(Cc2cn(C3CC3)c3c(F)c(-c4cc(C)nc(C)c4)c(F)cc3c2=O)cc1` [Example 7], for which the pEC50 at human topoisomerase II (* Bell-shaped curve, E = extrapolated) is 4.85. Besides, the pIC50 in assay [1] is 4.68; in assay [2], 4.85.

For the molecule `Cc1cc(-c2c(F)cc3c(=O)c(Cc4ccccc4NC(=O)C(F)(F)F)cn(C4CC4)c3c2F)cc(C)n1` [Example 22], the pEC50 at human topoisomerase II (setting [3]) was 5.33.

As to `COc1cccc(Cc2cn(C3CC3)c3c(F)c(-c4cc(C)nc(C)c4)c(F)cc3c2=O)c1` [Example 9], the pEC50 at human topoisomerase II (setting [3]) is 4.85. In addition, the pIC50 is 4.70 in assay [1] and 5.21 in assay [2].

With `Cc1cc(-c2c(F)cc3c(=O)c(Cc4ccccc4NS(C)(=O)=O)cn(C4CC4)c3c2F)cc(C)n1` [Example 25], on human topoisomerase II (setting [3]), the pEC50 is 5.48.

With `Cc1cc(-c2c(F)cc3c(=O)c(Cc4cc(O)ccc4O)cn(C4CC4)c3c2F)cc(C)n1` [Example 38], at human topoisomerase II (setting [3]), the pEC50 was 6.80. Moreover, the pIC50 in assay [1] is 6.44.

On to `COc1ccc(Cc2cn(C3CC3)c3c(F)c(-c4cc(C)nc(C)c4)c(F)cc3c2=O)c(OC)c1` [Example 12], for which, on human topoisomerase II (setting [3]), the pEC50 was below 3.68. Moreover, the pIC50 was below 3.70 in assay [1] and 5.13 in assay [2].

Take `Cc1cc(-c2c(F)cc3c(=O)c(Cc4c(CO)cnc(C)c4O)cn(C4CC4)c3c2F)cc(C)n1` [Example 21]: the negative-log EC50 (pEC50) on human topoisomerase II (setting [3]) was 5.34.

As for `COc1cc(OC)c(Cc2cn(C3CC3)c3c(F)c(-c4cc(C)nc(C)c4)c(F)cc3c2=O)c(OC)c1` [Example 14], the pEC50 at human topoisomerase II (setting [3]) is below 3.72.

Take `COc1ccc(Cc2cn(C3CC3)c3c(F)c(-c4cc(C)nc(C)c4)c(F)cc3c2=O)c(OC)c1C` [Example 17]: the pEC50 on human topoisomerase II (setting [3]) is below 3.68.

For the molecule `Cc1cc(-c2c(F)cc3c(=O)c(Cc4ccc(Cl)cc4)cn(C4CC4)c3c2F)cc(C)n1` [Example 6], on human topoisomerase II (setting [3]), the pEC50 was 5.11. In addition, the pIC50 is 4.70 in assay [1] and 5.21 in assay [2].

For `Cc1cc(-c2c(F)cc3c(=O)c(Cc4c(O)cc(O)cc4O)cn(C4CC4)c3c2F)cc(C)n1` [Example 35], the pEC50 on human topoisomerase II (setting [3]) is 7.01. The pIC50 in assay [1] was 6.33.

On to `COc1ccccc1Cc1cn(C2CC2)c2c(F)c(-c3cc(C)nc(C)c3)c(F)cc2c1=O` [Example 8], for which the pEC50 at human topoisomerase II (setting [3]) was 4.96. The pIC50 is 4.43 in assay [1] and 5.16 in assay [2].

Regarding `Cc1cc(-c2c(F)cc3c(=O)c(Cc4ccc(F)cc4O)cn(C4CC4)c3c2F)cc(C)n1` [Example 2, 1-cyclopropyl-6,8-difluoro-7-[2,6-dimethyl-4-pyridinyl]-3-[4-fluoro-2-hydroxyphenylmethyl) -4(H)-quinolone], the pEC50 on human topoisomerase II (setting [3]) is 6.00. In addition, the pIC50 in assay [1] was 5.80.

`Cc1cc(-c2c(F)cc3c(=O)c(Cc4ccc(N)cc4)cn(C4CC4)c3c2F)cc(C)n1` [Example 39]: the pEC50 at human topoisomerase II (setting [3]) is 5.14.

`Cc1cc(-c2c(F)cc3c(=O)c(Cc4ccc(O)c(C)c4O)cn(C4CC4)c3c2F)cc(C)n1` [Example 36]: the pEC50 on human topoisomerase II (setting [3]) is 6.70.

For the molecule `COc1ccc(OC)c(Cc2cn(C3CC3)c3c(F)c(-c4cc(C)nc(C)c4)c(F)cc3c2=O)c1` [Example 23], the pEC50 on human topoisomerase II (setting [3]) is 4.70.

For `COc1cc(Cc2cn(C3CC3)c3c(F)c(-c4cc(C)nc(C)c4)c(F)cc3c2=O)cc(OC)c1O` [Example 28], the pEC50 at human topoisomerase II (setting [3]) was 5.12. Further, the pIC50 was 5.09 in assay [1] and 5.34 in assay [2].

On to `Cc1cc(-c2c(F)cc3c(=O)c(Cc4cc(O)c(O)c(O)c4)cn(C4CC4)c3c2F)cc(C)n1` [Example 29], for which the pEC50 at human topoisomerase II (setting [3]) was 6.22. Besides, the results for the pIC50 in assay [1] and in assay [2] were 5.52 and 5.10, respectively.

As a reminder, the pEC50 is the negative decadic logarithm of the EC50, by convention in mol/L. For orientation: pIC50 means −log10 of the IC50, conventionally taken in molar units.

The values above are taken from US5330992A, “1-cyclopropyl-4-pyridyl-quinolinones” (priority 1992, dated 1994).
